# Reference: publication PMC8261488, “Contraceptive progestins with androgenic properties stimulate breast epithelial cell proliferation” (EMBO Molecular Medicine, 2021)
# Experiments:
# Assay type in all cases: cell-based
# [1] = test system: Wnt4; test: Wnt4 transcript levels by RT-PCR in mouse mammary organoids stimulated ex vivo
# Experimental: (§1) Next, we stimulated mouse mammary organoids derived from several BalbC females with R5020 or different progestins (Fig 1A). […] No significant change in Rankl and Wnt4 transcript levels was detected during the first 2 h (Appendix Fig S1D). By 6 h of R5020 stimulation, Rankl and Wnt4 transcript levels increased 22.4 and 5.8‐fold over the vehicle‐treated control, respectively.
# (§2) Animal experiments were performed in accordance with protocol approved by the Service de la Consommation et des Affaires vétérinaires of Canton de Vaud (VD 1865.3, VD 1865.4). NOD. Cg‐Prkdc^scid Il2rg^tm1Wjl/SzJ mice (Charles River), BalbC, and C57Bl6 breeders were purchased from Jackson Laboratories. Mammary glands were isolated from 18‐ to 35‐week‐old mice, lymph nodes removed, minced with surgical blades, and digested in DMEM/F12, 1% penicillin/streptomycin B with collagenase A 0.25 mg/ml (Roche). […] Fat was removed, and pellet containing organoids washed with phosphate‐buffered saline (PBS), resuspended 5 min in 3 ml red cell blood lysis buffer and washed twice with PBS.
# (§3) Human breast microstructures and mouse organoids were homogenized in Trizol (Invitrogen). Aqueous phase containing RNA was chloroform extracted and processed with miRNeasy extraction kit (Qiagen). cDNA was synthesized using random p(dN)6 primers (Roche) and MMLV reverse transcriptase (Invitrogen). SYBR Green PCR Core Reagent System (Qiagen) was used for semi‐quantitative real time (RT‐PCR) using the following primers.
# [2] = test system: mouse mammary organoids; test: RNA sequencing of mouse mammary organoids stimulated ex vivo with R5020; settings: R5020 20 nM, 6 h, n = 3
# From the text: To test this hypothesis, we sought for biological readouts in physiologically relevant models. First, we recurred to using an ex vivo assay for the transcriptional response of the mouse mammary epithelium to hormones. We isolated mammary glands from several inbred adult female mice, treated them mechanically and enzymatically to generate epithelial‐enriched organoids, which remain hormone‐responsive (Ayyanan et al, 2011), and exposed them either to vehicle or to the stable progesterone mimic promegestone (R5020, 20 nM) for 6 h and performed RNA sequencing (Fig 1A). Three independent experiments were performed, and principal component analysis (PCA) grouped the samples according to treatment (Fig 1B). […] Together, these observations confirm that PR signaling is intact in this ex vivo model and that the functionally important factors, Rankl and Wnt4, are robust PR target genes in the mouse mammary epithelium.
# (§4) Animal experiments were performed in accordance with protocol approved by the Service de la Consommation et des Affaires vétérinaires of Canton de Vaud (VD 1865.3, VD 1865.4). NOD. Cg‐Prkdc^scid Il2rg^tm1Wjl/SzJ mice (Charles River), BalbC, and C57Bl6 breeders were purchased from Jackson Laboratories. Mammary glands were isolated from 18‐ to 35‐week‐old mice, lymph nodes removed, minced with surgical blades, and digested in DMEM/F12, 1% penicillin/streptomycin B with collagenase A 0.25 mg/ml (Roche). Tissue was concomitantly stimulated with hormones for 1, 2, or 6 h and centrifuged at 652 g for 5 min. Fat was removed, and pellet containing organoids washed with phosphate‐buffered saline (PBS), resuspended 5 min in 3 ml red cell blood lysis buffer and washed twice with PBS.
# (§5) RNAseq libraries were prepared using Truseq Stranded RNA producing single‐end reads of 100 bp and sequenced on Illumina Hiseq 2500 instrument. […]
# (§6) Sequencing reads were quality controlled using FastQC (v0.11.8) (Wingett & Andrews, 2018). Mouse raw reads were aligned to the mouse genome (mm9) and human raw reads to the human genome (hg19) using TopHat (v2.0.11) (Kim et al, 2013). […]
# [3] = test system: human breast tissue microstructures (EpCAM+ cells); test: RNA sequencing of EpCAM+ cells from human breast tissue microstructures stimulated ex vivo; settings: 14–18 h exposure, n = 3
# From the text: Having ascertained with mammary tissue from inbred mice that androgenic and anti‐androgenic progestins have different effects on the expression of important PR target genes, we set out to assess the transcriptional response to PR signaling in the human breast epithelium. In view of our goal to perform in vivo experiments with the natural ligand progesterone, we compared the effects of progesterone to those of its stable analog R5020 which is commonly used for in vitro experiments on breast epithelial cells. For this, we used an ex vivo approach with human breast tissue similar to the mouse organoid technique used above that maintains hormone responsiveness (Tanos et al, 2013; Sflomos et al, 2015). In brief, 3 fresh mammoplasty tissue from women with follicular phase progesterone levels were cut into 1 mm^3 pieces and aliquoted for digestion with collagenase and concomitant exposure to either vehicle, R5020, or progesterone for 14–18 h. Tissue microstructures that contain epithelial cells, immune cells, and fibroblasts in varying proportions were recovered. To reduce interpatient variation as far as it relates to different ratios of various cell types, at the end of the treatment, the tissue microstructures were dissociated to single cells and enriched for epithelial cells by FACS sorting with antibodies against the epithelial cell surface marker EpCAM (Fig 2A). The EpCAM^+ cells were processed for RNA sequencing. […] Progesterone affected expression levels of 65 genes, whereas R5020 affected 112 genes, including RANKL (adj.P < 0.05) (Appendix Fig S2A). More than 90% of the progesterone‐induced gene expression changes were induced by R5020 (Fig 2C). […] R5020 induced higher‐fold changes as indicated by the estimated slope of the curve being > 1 (P < 0.0001). […]
# All experiments conformed to the principles set out in the WMA Declaration of Helsinki and the Department of Health and Human Services Belmont Report. […] Human tissue samples were mechanically and enzymatically dissociated, single cells were prepared, counted, and spin infected using Lenti‐ONE CMV‐GFP(2A)Luc2 WPRE VSV, V621004001, or pR980 Luc2GFP (GEGTECH) at a multiplicity of infection of 1 at 2.500 rpm for 3 h at room temperature in 500 μl of serum‐free medium. […]
# as §5, §6
# [4] = test system: Rankl; test: Rankl transcript levels by RT-PCR in mouse mammary organoids stimulated ex vivo
# Experimental: as §1, §2, §3
# [5] = test system: Rankl; test: Rankl induction by R5020 or LNG in mouse mammary organoids co-treated with AR antagonists; settings: antagonist 100 µM, 6 h, C57Bl6-derived organoids
# Experimental: (§7) Enzalutamide (100 µM) abrogated Rankl induction by R5020 (P < 0.05) but had no effect on Wnt4 induction (Fig 1H).
# as §4, §3
# [6] = test system: Wnt4; test: Wnt4 induction by R5020 or LNG in mouse mammary organoids co-treated with AR antagonists; settings: antagonist 100 µM, 6 h, C57Bl6-derived organoids
# Experimental: as §7, §4, §3
# [7] = BalbC females, 6 h of stimulation
# [8] = BalbC-derived organoids, 24 h of stimulation
SMILES,"Wnt4 transcript levels over vehicle-treated control [1, 7]","Wnt4 transcript induction [1, 8]","Wnt4 transcript induction ([1]; C57Bl/6 mice, 6 h, 20 nM)","Pgr transcripts, down-modulation (RNA sequencing) [2]","Rankl transcripts, induction over control samples (RNA sequencing) [2]",Wnt4 induction (RNA sequencing) [2],RANKL expression (variant stabilized gene expression values) [3],WNT4 expression (variant stabilized gene expression values) [3],"Rankl transcript levels over vehicle-treated control [4, 7]","Rankl transcript induction [4, 8]","Rankl transcript induction ([4]; C57Bl/6 mice, 6 h, 20 nM)",effect of AR antagonist on Rankl induction by R5020 [5],effect of AR antagonist on Wnt4 induction by R5020 [6]
"CCC(=O)[C@@]1(C)CC[C@H]2[C@@H]3CCC4=CC(=O)CCC4=C3CC[C@@]21C [R5020, promegestone]",5.8 fold,26 fold,4.2 fold,0.2 fold,10.07 fold,3.1 fold,increased expression,increased expression,22.4 fold,83 fold,10.9 fold,–,–
CC(O)(CS(=O)(=O)c1ccc(F)cc1)C(=O)Nc1ccc(C#N)c(C(F)(F)F)c1 (stereo not shown) [bicalutamide],–,–,–,–,–,–,–,–,–,–,–,abrogated,no significant effect
